Reference: PMC9081329, “Pharmacokinetics, Mass Balance, Excretion, and Tissue Distribution of Plasmalogen Precursor PPI-1011” (Frontiers in Cell and Developmental Biology, 2022)

Assay: Single dose tissue distribution study (QWBA, LSC of blood and plasma)
Format: in vivo, Sprague-Dawley rats
Protocol: Six male rats were administered a single oral dose of [^14C]PPI-1011 at 100 mg/kg (200 μCi/kg) and one rat was sacrificed at each of the following time points after the administration of the dose: 8, 12, 18, 24, 48, or 168 h. Terminal blood was collected by cardiac puncture directly into tubes with K2EDTA, an aliquot was stored at 4°C until LSC was performed for radioactivity, while the remaining blood was processed to plasma and stored at −20°C until LSC. Following blood collection, the carcasses were frozen in a cold bath with hexanes and dry ice for at least 8 min and then dried and stored at −70°C for at least 5 h. The carcasses were transferred to a −20°C freezer for at least 12 h before embedding.
QWBA was used to determine radioactivity concentrations in the caecum (contents and mucosa), large intestine (contents and mucosa), small intestine (contents and mucosa), stomach (contents and mucosa), brain, choroid plexus, spinal cord, bone, skin, adrenal gland, pineal body, pituitary gland, thyroid gland, liver, kidney (cortex, medulla and whole kidney), urinary bladder (contents and wall), brown fat, white fat, eye (lens, uveal tract and whole eye), epididymis, prostate gland, testis, ovary, uterus, lung, exorbital lachrymal gland, Harderian gland, pancreas, salivary gland, skeletal muscle, myocardium, cardiac blood, bone marrow, lymph node, spleen, and thymus. As well, LSC was used to determine the total radioactivity in the whole blood and plasma.
The whole-body cryosectioning technique described by ([Ullberg, 1977]) was the basis for embedding and cryosectioning the rats assigned to this study. Each frozen carcass was shaved, and then the limbs and tail were removed prior to embedding. Chilled (4°C) 3% CMC (low viscosity) was utilized to provide a firm support of reinforced ice around each rat and for a secure attachment to the microtome stage. Upon thorough freezing of the embedding medium surrounding each rat, the frozen CMC block was removed from the freezing bath and four 3/8 inch holes were drilled into the block. One cryosection quality control standard (CQCS) was prepared with a known amount of radioactivity and at least 1 ml aliquots were added to each of the four drilled holes. CQCS data were utilized to evaluate the overall performance of the QWBA assay.
Each frozen rat was sagittally trimmed (50–100 μm) at −20°C until exposure of a few target tissues employing a Leica Cryomacrocut heavy-duty microtome (Leica Microsystems Inc.,). Disposable stainless steel Feather type H45L knives (Feather Safety Razor Co., Ltd.) were utilized for trimming and sectioning each frozen rat. Several thinner sections (50 μm) were discarded prior to obtaining multiple 50 μm sections at various cryosectioning levels for QWBA analysis. Upon the collection of at least 60 target tissues in multiple cryosectioning levels, the cryosections were kept in the Cryomacrocut cryochamber for a minimum of 18 h for dehydration depending upon the number of cryosections within the cryochamber. After dehydration was complete, the cryosections were transferred to ambient temperature for processing. Mounted whole-body cryosections and a set of 15 standards were sandwiched between a standard phosphor screen and an exposure cassette. All cryosections were exposed to the phosphor screen for 4-days in a cabinet protected with lead prior to scanning using a Typhoon PhosphorImager (Cytiva). MCID™ Analysis software (InterFocus Ltd.) was utilized to generate a calibration curve of the STD nominal concentrations (nCi/g) versus PhosphorImager response (counts/μm^2 minus background) by weighted (1/x) linear regression analysis ([Potchoiba et al., 1995]; [Potchoiba et al., 1998]). The linear regression curve was then utilized to determine the concentration (nCi/g) of total radioactivity in whole-body tissues and blood. Radioactivity concentrations were expressed as μg Eq/g based on the specific activity of the compound in the final dose formulations. […]

[1] = 12 h post single oral 100 mg/kg

CC/C=C\C/C=C\C/C=C\C/C=C\C/C=C\C/C=C\CCC(=O)O[C@H](CO[14CH2]CCCCCCCCCCCCCCC)COC(=O)CCCCC1CCSS1 (stereo partly shown) [[^14C]PPI-1011]
Blood:plasma concentration ratio (168 HPD, single dose): 2.96 | Radioactivity concentration, Adipose - Brown (8 h post single oral 100 mg/kg): 171 μg equivalents/g | Radioactivity concentration, Adipose - Brown (Vessel Wall) (8 h post single oral 100 mg/kg): 301 μg equivalents/g | Radioactivity concentration, Adipose - Subcutaneous (8 h post single oral 100 mg/kg): 74.0 μg equivalents/g | Radioactivity concentration, Adipose - Visceral (8 h post single oral 100 mg/kg): 83.1 μg equivalents/g | Radioactivity concentration, Adrenal Gland (8 h post single oral 100 mg/kg): 195 μg equivalents/g | Radioactivity concentration, Bladder Wall (8 h post single oral 100 mg/kg): 86.0 μg equivalents/g | Radioactivity concentration, Blood - QWBA (8 h post single oral 100 mg/kg): 35.4 μg equivalents/g | Radioactivity concentration, Bone Marrow (8 h post single oral 100 mg/kg): 23.5 μg equivalents/g | Radioactivity concentration, Bone Surface (8 h post single oral 100 mg/kg): 2.30 μg equivalents/g | Radioactivity concentration, Cerebellum (8 h post single oral 100 mg/kg): 2.70 μg equivalents/g | Radioactivity concentration, Cerebrum (8 h post single oral 100 mg/kg): 2.39 μg equivalents/g | Radioactivity concentration, Choroid Plexus (8 h post single oral 100 mg/kg): 14.9 μg equivalents/g | Radioactivity concentration, Colliculus (8 h post single oral 100 mg/kg): 3.50 μg equivalents/g | Radioactivity concentration, Diaphragm (8 h post single oral 100 mg/kg): 55.6 μg equivalents/g | Radioactivity concentration, Epididymis (8 h post single oral 100 mg/kg): 39.8 μg equivalents/g | Radioactivity concentration, Esophagus (8 h post single oral 100 mg/kg): 17.4 μg equivalents/g | Radioactivity concentration, Exorbital Lacrimal Gland (8 h post single oral 100 mg/kg): 28.7 μg equivalents/g | Radioactivity concentration, Gastric Mucosa (8 h post single oral 100 mg/kg): 91.2 μg equivalents/g | Radioactivity concentration, Harderian Gland (8 h post single oral 100 mg/kg): 14.4 μg equivalents/g | Radioactivity concentration, Intra-Orbital Lacrimal Gland (8 h post single oral 100 mg/kg): 10.4 μg equivalents/g | Radioactivity concentration, Kidney (8 h post single oral 100 mg/kg): 42.9 μg equivalents/g | Radioactivity concentration, Large Intestines (8 h post single oral 100 mg/kg): 12.5 μg equivalents/g | Radioactivity concentration, Liver (8 h post single oral 100 mg/kg): 313 μg equivalents/g | Radioactivity concentration, Lung (8 h post single oral 100 mg/kg): 74.0 μg equivalents/g | Radioactivity concentration, Lymph Node (8 h post single oral 100 mg/kg): 22.7 μg equivalents/g | Radioactivity concentration, Medulla Oblongata (8 h post single oral 100 mg/kg): 2.40 μg equivalents/g | Radioactivity concentration, Muscle (8 h post single oral 100 mg/kg): 10.3 μg equivalents/g | Radioactivity concentration, Myocardium (8 h post single oral 100 mg/kg): 92.0 μg equivalents/g | Radioactivity concentration, Nasal Turbinates (8 h post single oral 100 mg/kg): 16.0 μg equivalents/g | Radioactivity concentration, Ocular - Uveal Tract (8 h post single oral 100 mg/kg): 6.97 μg equivalents/g | Radioactivity concentration, Ocular - Whole Eye (8 h post single oral 100 mg/kg): 1.83 μg equivalents/g | Radioactivity concentration, Olfactory Bulb (8 h post single oral 100 mg/kg): 2.16 μg equivalents/g | Radioactivity concentration, Pancreas (8 h post single oral 100 mg/kg): 66.3 μg equivalents/g | Radioactivity concentration, Parotid Gland (8 h post single oral 100 mg/kg): 39.1 μg equivalents/g | Radioactivity concentration, Pineal Gland (8 h post single oral 100 mg/kg): 11.9 μg equivalents/g | Radioactivity concentration, Pituitary Gland (8 h post single oral 100 mg/kg): 21.2 μg equivalents/g | Radioactivity concentration, Preputial Gland (8 h post single oral 100 mg/kg): 33.6 μg equivalents/g | Radioactivity concentration, Prostate (8 h post single oral 100 mg/kg): 49.6 μg equivalents/g | Radioactivity concentration, Renal Cortex (8 h post single oral 100 mg/kg): 41.4 μg equivalents/g | Radioactivity concentration, Renal Medulla (8 h post single oral 100 mg/kg): 51.0 μg equivalents/g | Radioactivity concentration, Salivary Gland (8 h post single oral 100 mg/kg): 53.3 μg equivalents/g | Radioactivity concentration, Seminal Vesicles (8 h post single oral 100 mg/kg): 12.8 μg equivalents/g | Radioactivity concentration, Skin - Non-Pigmented (8 h post single oral 100 mg/kg): 15.0 μg equivalents/g | Radioactivity concentration, Small Intestines (8 h post single oral 100 mg/kg): 609 μg equivalents/g | Radioactivity concentration, Spinal Cord (8 h post single oral 100 mg/kg): 2.71 μg equivalents/g | Radioactivity concentration, Spleen (8 h post single oral 100 mg/kg): 105 μg equivalents/g | Radioactivity concentration, Stomach (8 h post single oral 100 mg/kg): 22.6 μg equivalents/g | Radioactivity concentration, Testis (8 h post single oral 100 mg/kg): 2.65 μg equivalents/g | Radioactivity concentration, Thalamus (8 h post single oral 100 mg/kg): 2.27 μg equivalents/g | Radioactivity concentration, Thymus (8 h post single oral 100 mg/kg): 10.7 μg equivalents/g | Radioactivity concentration, Thyroid (8 h post single oral 100 mg/kg): 49.9 μg equivalents/g | Radioactivity concentration, Whole Brain (8 h post single oral 100 mg/kg): 2.60 μg equivalents/g | Radioactivity concentration, Adipose - Brown [1]: 426 μg equivalents/g | Radioactivity concentration, Adipose - Brown (Vessel Wall) [1]: 383 μg equivalents/g | Radioactivity concentration, Adipose - Subcutaneous [1]: 242 μg equivalents/g | Radioactivity concentration, Adipose - Visceral [1]: 170 μg equivalents/g | Radioactivity concentration, Adrenal Gland [1]: 367 μg equivalents/g | Radioactivity concentration, Bladder Wall [1]: 19.3 μg equivalents/g | Radioactivity concentration, Blood - QWBA [1]: 16.4 μg equivalents/g | Radioactivity concentration, Bone Marrow [1]: 23.0 μg equivalents/g | Radioactivity concentration, Bone Surface [1]: 1.15 μg equivalents/g | Radioactivity concentration, Cecum [1]: 450 μg equivalents/g | Radioactivity concentration, Cerebellum [1]: 2.69 μg equivalents/g | Radioactivity concentration, Cerebrum [1]: 2.22 μg equivalents/g | Radioactivity concentration, Choroid Plexus [1]: 17.1 μg equivalents/g | Radioactivity concentration, Colliculus [1]: 3.03 μg equivalents/g | Radioactivity concentration, Diaphragm [1]: 59.9 μg equivalents/g | Radioactivity concentration, Epididymis [1]: 70.9 μg equivalents/g | Radioactivity concentration, Esophagus [1]: 16.9 μg equivalents/g | Radioactivity concentration, Exorbital Lacrimal Gland [1]: 34.5 μg equivalents/g | Radioactivity concentration, Gastric Mucosa [1]: 67.8 μg equivalents/g | Radioactivity concentration, Harderian Gland [1]: 10.8 μg equivalents/g | Radioactivity concentration, Intra-Orbital Lacrimal Gland [1]: 8.89 μg equivalents/g | Radioactivity concentration, Kidney [1]: 45.3 μg equivalents/g | Radioactivity concentration, Large Intestines [1]: 209 μg equivalents/g | Radioactivity concentration, Liver [1]: 269 μg equivalents/g | Radioactivity concentration, Lung [1]: 51.9 μg equivalents/g | Radioactivity concentration, Lymph Node [1]: 22.6 μg equivalents/g | Radioactivity concentration, Medulla Oblongata [1]: 2.44 μg equivalents/g | Radioactivity concentration, Muscle [1]: 12.6 μg equivalents/g | Radioactivity concentration, Myocardium [1]: 72.6 μg equivalents/g | Radioactivity concentration, Nasal Turbinates [1]: 10.6 μg equivalents/g | Radioactivity concentration, Ocular - Uveal Tract [1]: 6.57 μg equivalents/g | Radioactivity concentration, Ocular - Whole Eye [1]: 2.03 μg equivalents/g
